Results published in patent US7521478B2, “Total synthesis of myriaporones” (Pharma Mar, S.A.U., priority 2002, dated 2009).

Tests used:
Type in all cases: cell-based
A-549 = assay: Inhibition of cell growth by colorimetric SRB assay, A-549; conditions: Homo sapiens, A549, A-549, 48 hours exposure; for CC50: cell killing, read-out: LC50 (the source's name); for IC (total growth inhibition): read-out: TGI
Text: (§1) The finality of these assays is to interrupt the growth of a “in vitro” tumor cell culture by means a continued exhibition of the cells to the sample to be testing.
(§2) Inhibition of Cell Growth by Colorimetric Assay.
(§3) A colorimetric type of assay, using sulforhodamine B (SRB) reaction has been adapted for a quantitative measurement of cell growth and viability (following the technique described by P. A. Skehan, et al., J. Natl. CancerInst. 1990, 82, 1107-1112).
(§4) This form of assay employs 96 well cell culture microplates of 9 mm diameter (T. Mosmann et al., J. of Immuological Methods 1983, 65, 55-63; G. T. Faircloth et al., J. of Tissue and Culture Methods 1988, 11, 201-205). Most of the cell lines are obtained from American Type Culture Collection (ATCC) derived from different human cancer types.
(§5) Cells are maintained in RPMI 1640 10% FBS, supplemented with 0.1 g/L penicillin and 0.1 g/L streptomycin sulfate and then incubated at 37° C., 5% CO2 and 98% humidity. For the experiments, cells were harvested from subconfluent cultures using trypsin and resuspended in fresh medium before plating.
(§6) Cells are seeded in 96 well microtiter plates, at 5×10^3 cells per well in aliquots of 195 μL medium, and they are allowed to attach to the plate surface by growing in drug free medium for 18 hours. Afterward, samples are added in aliquots of 5 μL in a ranging from 10 to 10^−8 μg/mL, dissolved in DMSO/EtOH/PBS (0.5:0.5:99). After 48 hours exposure, the antitumor effect are measured by the SRB methodology: cells are fixed by adding 50 μL of cold 50% (wt/vol) trichloroacetic acid (TCA) and incubated for 60 minutes at 4° C. Plates are washed with deionizer water and dried. One hundred μl of SRB solution (0.4% wt/vol in 1% acetic acid) is added to each microliter well and incubated for 10 minutes at room temperature. Unbound SRB is removed by washing with 1% acetic acid. Plates are air dried and bound stain is solubilized with Tris buffer. Optical densities are read on a automated spectrophotometric plate reader at a single wavelength of 490 nm.
(§7) The values for mean +/−SD of data from triplicate wells are calculated. Some parameters for cellular responses can be calculated: GI=growth inhibition, TGI=total growth inhibition (cytostatic effect) and LC=cell killing (cytotoxic effect).

LoVo-Dox = assay: Inhibition of cell growth by colorimetric SRB assay, LOVO-DOX; conditions: Homo sapiens, LOVO-DOX, 48 hours exposure; for LC50 (concentration for 50% cell killing): read-out: LC50; for IC (total growth inhibition): read-out: TGI
Text: as §1, §2, §3, §4, §5, §6, §7

SK-BR-3 = assay: Inhibition of cell growth by colorimetric SRB assay, SK-BR-3; conditions: SK-BR-3, 48 hours exposure; for GI50 / CC50: Homo sapiens; for CC50: cell killing, read-out: LC50 (the source's name); for TGI: total growth inhibition
Text: as §1, §2, §3, §4, §5, §6, §7

K-562 = assay: Inhibition of cell growth by colorimetric SRB assay, K-562; conditions: Homo sapiens, K562, K-562, 48 hours exposure; for CC50: cell killing, read-out: LC50 (the source's name); for IC (total growth inhibition): read-out: TGI
Text: as §1, §2, §3, §4, §5, §6, §7

HeLa = assay: Inhibition of cell growth by colorimetric SRB assay, HELA; conditions: Homo sapiens, HELA, 48 hours exposure; for CC50: cell killing, read-out: LC50 (the source's name); for IC (total growth inhibition): read-out: TGI
Text: as §1, §2, §3, §4, §5, §6, §7

SK-MEL-28 = assay: Inhibition of cell growth by colorimetric SRB assay, MEL-28; conditions: Homo sapiens, SK-MEL-28, MEL-28, 48 hours exposure; for CC50: cell killing, read-out: LC50 (the source's name); for IC (total growth inhibition): read-out: TGI
Text: as §1, §2, §3, §4, §5, §6, §7

IGROV-ET = assay: Inhibition of cell growth by colorimetric SRB assay, IGROV-ET; conditions: Homo sapiens, IGROV-ET, 48 hours exposure; for CC50: cell killing, read-out: LC50 (the source's name); for IC (total growth inhibition): read-out: TGI
Text: as §1, §2, §3, §4, §5, §6, §7

HeLa-APL = assay: Inhibition of cell growth by colorimetric SRB assay, HELA-APL; conditions: Homo sapiens, HELA-APL, 48 hours exposure; for CC50: cell killing, read-out: LC50 (the source's name)
Text: as §1, §2, §3, §4, §5, §6, §7

HT-29 = assay: Inhibition of cell growth by colorimetric SRB assay, HT-29; conditions: Homo sapiens, HT-29, 48 hours exposure; for CC50: cell killing, read-out: LC50 (the source's name); for IC (total growth inhibition): read-out: TGI
Text: as §1, §2, §3, §4, §5, §6, §7

IGROV = assay: Inhibition of cell growth by colorimetric SRB assay, IGROV; conditions: Homo sapiens, 48 hours exposure; for CC50: cell killing, read-out: LC50 (the source's name); for IC (total growth inhibition): read-out: TGI
Text: as §1, §2, §3, §4, §5, §6, §7

PANC-1 = assay: Inhibition of cell growth by colorimetric SRB assay, PANC-1; conditions: Homo sapiens, PANC-1, 48 hours exposure; for CC50: cell killing, read-out: LC50 (the source's name); for IC (total growth inhibition): read-out: TGI
Text: as §1, §2, §3, §4, §5, §6, §7

LoVo = assay: Inhibition of cell growth by colorimetric SRB assay, LOVO; conditions: Homo sapiens, LOVO, 48 hours exposure; for LC50: cell killing, read-out: LC50; for IC (total growth inhibition): read-out: TGI
Text: as §1, §2, §3, §4, §5, §6, §7

LNCaP = assay: Inhibition of cell growth by colorimetric SRB assay, LN-caP; conditions: Homo sapiens, LN-caP, 48 hours exposure; for CC50: cell killing, read-out: LC50 (the source's name); for IC (total growth inhibition): read-out: TGI
Text: as §1, §2, §3, §4, §5, §6, §7

DU-145 = assay: Inhibition of cell growth by colorimetric SRB assay, DU-145; conditions: Homo sapiens, DU-145, 48 hours exposure; for CC50: cell killing, read-out: LC50 (the source's name); for IC (total growth inhibition): read-out: TGI
Text: as §1, §2, §3, §4, §5, §6, §7

C/C=C\[C@H](C)[C@H]1OC1(C)[C@@H](O[Si](C)(C)C(C)(C)C)[C@@H](CO)C(=O)[C@H](CO)[C@H](O)CC(=O)CC (stereo partly shown) [20b + 20d]
GI50 (A-549): 20.5 µM | CC50 (A-549): 20.5 µM | IC (total growth inhibition) (A-549): 20.5 µM | GI50 (LoVo-Dox): 20.5 µM | LC50 (concentration for 50% cell killing) (LoVo-Dox): 20.5 µM | IC (total growth inhibition) (LoVo-Dox): 20.5 µM | GI50 (SK-BR-3): 14.9 µM | CC50 (SK-BR-3): 20.5 µM | TGI (SK-BR-3): 2.05E−05 Molar | GI50 (K-562): 10.3 µM | CC50 (K-562): 20.5 µM | IC (total growth inhibition) (K-562): 20.5 µM | GI50 (HeLa): 20.5 µM | CC50 (HeLa): 20.5 µM | IC (total growth inhibition) (HeLa): 20.5 µM | GI50 (SK-MEL-28): 20.5 µM | CC50 (SK-MEL-28): 20.5 µM | IC (total growth inhibition) (SK-MEL-28): 20.5 µM | GI50 (IGROV-ET): 20.5 µM | CC50 (IGROV-ET): 20.5 µM | IC (total growth inhibition) (IGROV-ET): 20.5 µM | CC50 (HeLa-APL): 20.5 µM | GI50 (HT-29): 20.5 µM | CC50 (HT-29): 20.5 µM | IC (total growth inhibition) (HT-29): 20.5 µM | GI50 (IGROV): 20.5 µM | CC50 (IGROV): 20.5 µM | IC (total growth inhibition) (IGROV): 20.5 µM | GI50 (PANC-1): 9.37 µM | CC50 (PANC-1): 20.5 µM | IC (total growth inhibition) (PANC-1): 20.5 µM | GI50 (LoVo): 20.5 µM | LC50 (LoVo): 20.5 µM | IC (total growth inhibition) (LoVo): 20.5 µM | GI50 (LNCaP): 12.4 µM | CC50 (LNCaP): 20.5 µM | IC (total growth inhibition) (LNCaP): 20.5 µM | GI50 (DU-145): 20.5 µM | CC50 (DU-145): 20.5 µM | IC (total growth inhibition) (DU-145): 20.5 µM

C/C=C\[C@H](C)[C@H]1O[C@@]1(C)[C@@H](O)[C@@H](COC(C)=O)C(=O)[C@H](CO)[C@@H](O)CC(=O)CC [Compound 47]
GI50 (A-549): 0.151 µM | CC50 (A-549): 23.2 µM | IC (total growth inhibition) (A-549): 1.12 µM | GI50 (LoVo-Dox): 0.216 µM | LC50 (concentration for 50% cell killing) (LoVo-Dox): 24.1 µM | IC (total growth inhibition) (LoVo-Dox): 24.1 µM | GI50 (SK-BR-3): 0.0231 µM | CC50 (SK-BR-3): 2.3 µM | TGI (SK-BR-3): 1.18E−07 Molar | GI50 (K-562): 0.294 µM | CC50 (K-562): 11.8 µM | IC (total growth inhibition) (K-562): 0.999 µM | GI50 (HeLa): 0.0717 µM | CC50 (HeLa): 13.5 µM | IC (total growth inhibition) (HeLa): 0.434 µM | GI50 (SK-MEL-28): 0.082 µM | CC50 (SK-MEL-28): 12.9 µM | IC (total growth inhibition) (SK-MEL-28): 0.984 µM | GI50 (IGROV-ET): 0.152 µM | CC50 (IGROV-ET): 24.1 µM | IC (total growth inhibition) (IGROV-ET): 1.08 µM | CC50 (HeLa-APL): 24.1 µM | GI50 (HeLa-APL; read-out: GI50): 0.0796 µM | IC (total growth inhibition) (HeLa-APL; total growth inhibition, read-out: TGI): 0.591 µM | GI50 (HT-29): 0.106 µM | CC50 (HT-29): 24.1 µM | IC (total growth inhibition) (HT-29): 3.11 µM | GI50 (IGROV): 0.0639 µM | CC50 (IGROV): 24.1 µM | IC (total growth inhibition) (IGROV): 0.528 µM | GI50 (PANC-1): 0.0905 µM | CC50 (PANC-1): 19.5 µM | IC (total growth inhibition) (PANC-1): 2.38 µM | GI50 (LoVo): 0.0403 µM | LC50 (LoVo): 17.7 µM | IC (total growth inhibition) (LoVo): 0.374 µM | GI50 (LNCaP): 0.0813 µM | CC50 (LNCaP): 8.88 µM | IC (total growth inhibition) (LNCaP): 0.536 µM | GI50 (DU-145): 0.0815 µM | CC50 (DU-145): 24.1 µM | IC (total growth inhibition) (DU-145): 0.531 µM
